Measurements from ChEMBL document CHEMBL5150010 (J Med Chem, 2021).
pIC50: −log10 of the molar value.

How the values were obtained:
in vitro [1] = conditions: dog, MDCK cells
in vitro [2] = conditions: human, liver
in vitro [3] = conditions: human, liver microsomes
in vitro [4] = conditions: human, liver microsomes; remark: listed apart in the source
[5] = Inhibition of Influenza A virus H5N1 Neuraminidase
[6] = Inhibition of Influenza A virus H5N2 Neuraminidase
[7] = Tmax in Sprague-Dawley rat at 20 mg/kg, po measured upto 24 hrs by LC-MS/MS analysis; format: ADME, organism-based; conditions: in vivo
[8] = Subacute toxicity in Kunming mouse assessed as water consumption at 50 mg/kg, IG mesured every second day for 2 weeks; format: organism-based; conditions: in vivo, po, 336 h
[9] = Subacute toxicity in Kunming mouse assessed as food consumption at 50 mg/kg, IG mesured every second day for 2 weeks; format: organism-based; conditions: in vivo, po, 336 h
[10] = Cmax in Sprague-Dawley rat at 2 mg/kg, iv measured upto 24 hrs by LC-MS/MS analysis; format: ADME, organism-based; design: time < 24 hrs, dose 2 mg/kg, route iv; conditions: in vivo
in vivo [11] = conditions: Sprague-Dawley, rat, iv, 2 mg/kg
[12] = Subacute toxicity in Kunming mouse assessed as animal death at 50 mg/kg, IG mesured every second day for 2 weeks; format: organism-based; conditions: in vivo, po, 336 h
Cytochrome P450 3A4 = Cytochrome P450 3A4 (Homo sapiens, UniProt P08684)
Chain of Cytochrome P450 3A4 (P08684 whole entry): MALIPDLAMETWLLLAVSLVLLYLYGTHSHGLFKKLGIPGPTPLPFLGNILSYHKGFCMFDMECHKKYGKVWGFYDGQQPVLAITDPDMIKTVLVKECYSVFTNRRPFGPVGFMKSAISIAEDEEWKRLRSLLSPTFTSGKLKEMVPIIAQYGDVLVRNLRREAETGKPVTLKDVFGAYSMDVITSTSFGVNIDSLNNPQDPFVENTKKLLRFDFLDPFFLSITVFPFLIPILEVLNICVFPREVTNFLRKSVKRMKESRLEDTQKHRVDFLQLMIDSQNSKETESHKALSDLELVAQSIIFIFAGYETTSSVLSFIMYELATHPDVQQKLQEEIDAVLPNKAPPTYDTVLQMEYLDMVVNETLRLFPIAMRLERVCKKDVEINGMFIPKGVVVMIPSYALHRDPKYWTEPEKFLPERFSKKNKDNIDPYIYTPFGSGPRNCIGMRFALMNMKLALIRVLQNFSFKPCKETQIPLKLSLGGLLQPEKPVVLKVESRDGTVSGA

[13] = Volume of distribution in Sprague-Dawley rat at 2 mg/kg, iv measured upto 24 hrs by LC-MS/MS analysis; format: ADME, organism-based; conditions: in vivo
[14] = Subacute toxicity in male Kunming mouse assessed as increase in body weight at 50 mg/kg, IG mesured every second day for 2 weeks; format: organism-based; conditions: in vivo, po, 336 h
in vivo [15] = conditions: Sprague-Dawley, rat, iv, 2 mg/kg; remark: listed apart in the source
[16] = rat, in vivo, po, 20 mg/kg, 24 h
[17] = Acute toxicity in Kunming mouse assessed as anorexia at 1000 mg/kg, IG observed upto 1 week; format: organism-based; conditions: in vivo, po, 168 h, time < 1 weeks
[18] = Half life in Sprague-Dawley rat at 2 mg/kg, iv measured upto 24 hrs by LC-MS/MS analysis; format: ADME, organism-based; conditions: in vivo
in vivo [19] = conditions: Sprague-Dawley, rat, po, 20 mg/kg
[20] = Acute toxicity in Kunming mouse assessed as clonic convulsion at 1000 mg/kg, IG observed upto 1 week; format: organism-based; conditions: in vivo, po, 168 h, time < 1 weeks
in vitro [21] = conditions: human, liver microsomes; remark: listed apart in the source
Cytochrome P450 2C9 = Cytochrome P450 2C9 (Homo sapiens, UniProt P11712); format: ADME, microsomes, Liver, Microsome
Chain of Cytochrome P450 2C9 (P11712 whole entry): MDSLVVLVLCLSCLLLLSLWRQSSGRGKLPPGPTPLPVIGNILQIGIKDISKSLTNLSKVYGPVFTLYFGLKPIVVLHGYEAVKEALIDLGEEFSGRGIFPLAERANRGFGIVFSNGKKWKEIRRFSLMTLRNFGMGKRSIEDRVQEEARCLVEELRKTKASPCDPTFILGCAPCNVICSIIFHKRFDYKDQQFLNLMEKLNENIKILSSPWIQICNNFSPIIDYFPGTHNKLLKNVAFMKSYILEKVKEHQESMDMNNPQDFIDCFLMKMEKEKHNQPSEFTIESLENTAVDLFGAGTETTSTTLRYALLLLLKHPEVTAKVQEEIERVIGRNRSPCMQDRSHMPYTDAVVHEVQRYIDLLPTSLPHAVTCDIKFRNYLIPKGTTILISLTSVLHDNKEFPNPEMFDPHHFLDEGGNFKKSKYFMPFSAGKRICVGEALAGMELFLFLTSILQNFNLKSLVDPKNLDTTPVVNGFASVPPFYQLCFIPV

in vitro [22] = conditions: human, liver microsomes; remark: listed apart in the source
[23] = Half life in Sprague-Dawley rat at 20 mg/kg, po measured upto 24 hrs by LC-MS/MS analysis; format: ADME, organism-based; conditions: in vivo
[24] = Oral bioavailability in Sprague-Dawley rat at 20 mg/kg measured upto 24 hrs by LC-MS/MS analysis; format: ADME, organism-based; conditions: in vivo
[25] = Acute toxicity in Kunming mouse assessed as animal death at 1000 mg/kg, IG observed upto 1 week; format: organism-based; conditions: in vivo, po, 168 h, time < 1 weeks
[26] = Acute toxicity in Kunming mouse assessed as increase in body weight at 1000 mg/kg, IG observed upto 1 week; format: organism-based; conditions: in vivo, po, 168 h, time < 1 weeks
[27] = Tmax in Sprague-Dawley rat at 2 mg/kg, iv measured upto 24 hrs by LC-MS/MS analysis; format: ADME, organism-based; conditions: in vivo
[28] = Subacute toxicity in female Kunming mouse assessed as increase in body weight at 50 mg/kg, IG mesured every second day for 2 weeks; format: organism-based; conditions: in vivo, po, 336 h
Cytochrome P450 2C19 = Cytochrome P450 2C19 (Homo sapiens, UniProt P33261); format: ADME, microsomes, Liver, Microsome
Chain of Cytochrome P450 2C19 (P33261 whole entry): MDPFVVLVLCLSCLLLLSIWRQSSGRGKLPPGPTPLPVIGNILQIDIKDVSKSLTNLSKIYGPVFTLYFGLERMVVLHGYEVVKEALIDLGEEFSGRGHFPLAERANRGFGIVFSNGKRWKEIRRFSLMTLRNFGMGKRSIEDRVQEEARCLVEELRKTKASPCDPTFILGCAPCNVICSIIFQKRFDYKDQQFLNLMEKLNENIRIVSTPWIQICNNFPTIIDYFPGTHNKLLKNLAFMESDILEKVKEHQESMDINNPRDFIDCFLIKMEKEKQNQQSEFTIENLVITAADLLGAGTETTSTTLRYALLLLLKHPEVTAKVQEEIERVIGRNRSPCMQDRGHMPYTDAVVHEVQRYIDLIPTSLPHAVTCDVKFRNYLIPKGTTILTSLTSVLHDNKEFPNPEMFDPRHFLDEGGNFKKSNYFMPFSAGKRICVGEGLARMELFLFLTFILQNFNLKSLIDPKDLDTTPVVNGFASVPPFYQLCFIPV

[29] = Acute toxicity in Kunming mouse assessed as lethargy at 1000 mg/kg, IG observed upto 1 week; format: organism-based; conditions: in vivo, po, 168 h, time < 1 weeks
Cytochrome P450 1A2 = target: T1, Cytochrome P450 1A2 (Homo sapiens, UniProt P05177)
T1 sequence (P05177 whole entry): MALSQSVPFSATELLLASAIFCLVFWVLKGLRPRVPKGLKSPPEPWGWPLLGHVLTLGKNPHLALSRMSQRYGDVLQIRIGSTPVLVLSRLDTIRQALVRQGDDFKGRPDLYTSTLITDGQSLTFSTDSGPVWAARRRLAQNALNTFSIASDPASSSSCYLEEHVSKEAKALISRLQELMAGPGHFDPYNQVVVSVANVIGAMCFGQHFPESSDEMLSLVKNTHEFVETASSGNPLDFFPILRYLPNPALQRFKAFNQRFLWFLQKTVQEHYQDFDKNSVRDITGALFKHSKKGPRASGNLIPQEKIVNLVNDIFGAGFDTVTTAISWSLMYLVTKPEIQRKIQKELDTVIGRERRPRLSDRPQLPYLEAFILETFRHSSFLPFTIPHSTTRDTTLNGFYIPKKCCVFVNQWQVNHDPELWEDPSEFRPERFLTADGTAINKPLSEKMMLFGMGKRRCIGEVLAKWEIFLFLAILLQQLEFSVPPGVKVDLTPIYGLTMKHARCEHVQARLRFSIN

[30] = Acute toxicity in Kunming mouse assessed as ruffled fur at 1000 mg/kg, IG observed upto 1 week; format: organism-based; conditions: in vivo, po, 168 h, time < 1 weeks
[31] = Cmax in Sprague-Dawley rat at 20 mg/kg, po measured upto 24 hrs by LC-MS/MS analysis; format: ADME, organism-based; design: dose 20 mg/kg, time < 24 hrs, route po; conditions: in vivo
Cytochrome P450 2D6 = Cytochrome P450 2D6 (Homo sapiens, UniProt P10635)
Chain of Cytochrome P450 2D6 (P10635 whole entry): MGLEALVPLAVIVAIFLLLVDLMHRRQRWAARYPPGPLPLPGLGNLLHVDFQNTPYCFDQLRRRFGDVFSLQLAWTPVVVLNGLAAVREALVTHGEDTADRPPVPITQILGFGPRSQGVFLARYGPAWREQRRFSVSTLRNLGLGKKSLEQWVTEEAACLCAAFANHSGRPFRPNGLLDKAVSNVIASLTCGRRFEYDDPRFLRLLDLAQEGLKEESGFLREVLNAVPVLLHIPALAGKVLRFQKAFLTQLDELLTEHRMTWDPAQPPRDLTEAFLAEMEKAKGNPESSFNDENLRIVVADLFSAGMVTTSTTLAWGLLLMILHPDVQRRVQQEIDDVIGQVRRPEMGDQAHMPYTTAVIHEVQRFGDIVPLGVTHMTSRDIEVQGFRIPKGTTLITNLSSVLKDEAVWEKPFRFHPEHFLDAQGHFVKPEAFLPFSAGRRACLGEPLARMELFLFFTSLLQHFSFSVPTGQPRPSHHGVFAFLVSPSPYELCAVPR

[32] = Inhibition of Influenza A virus H9N2-S2 Neuraminidase
[33] = Inhibition of Influenza A virus H5N1-1220 Neuraminidase

CCC(CC)O[C@@H]1C=C(C(=O)O)C[C@H](N)[C@H]1NC(C)=O [OSELTAMIVIR CARBOXYLATE]
CC50 at 48 h (in vitro [1]): 250 µM

O=C(O)Cc1ccccc1Nc1c(Cl)cccc1Cl [DICLOFENAC]
CLint scaled (in vitro [2]): 151 mL/min/kg | microsomal CLint (in vitro [3]): 168 µL/min/mg | half-life (in vitro [4]): 8.2 min

CCC(CC)O[C@@H]1C=C(C(=O)O)C[C@H](NCc2c3ccccc3cc3ccccc23)[C@H]1NC(C)=O
CC50 at 48 h (in vitro [1]): 250 µM

CCC(CC)O[C@@H]1C=C(C(=O)O)C[C@H](NCc2ccc3oc4ccccc4c3c2)[C@H]1NC(C)=O
CC50 at 48 h (in vitro [1]): 250 µM

CCC(CC)O[C@@H]1C=C(C(=O)O)C[C@H](NCc2ccc(Sc3ccccc3)cc2)[C@H]1NC(C)=O
pIC50 [5]: 9.02 | pIC50 [6]: 6.06

CCC(CC)O[C@@H]1C=C(C(=O)O)C[C@H](NCc2ccc3c(c2)c2ccccc2n3CC)[C@H]1NC(C)=O
CC50 at 48 h (in vitro [1]): 250 µM

CCC(CC)O[C@@H]1C=C(C(=O)O)C[C@H](NCc2ccc3sc4ccccc4c3c2)[C@H]1NC(C)=O
Tmax [7]: 30 min | Activity [8]: Non-Toxic | Activity [9]: Non-Toxic | Cmax [10]: 13000 ng/mL | AUC(0-t) at 24 h (in vivo [11]): 4280 ng·h/mL | Activity [12]: Non-Toxic | pIC50 (Cytochrome P450 3A4): < 4.00 | Vd [13]: 0.161 L/kg | CLint scaled (in vitro [2]): < 8.6 mL/min/kg | Activity [14]: Toxic | AUC(0-inf) at 24 h (in vivo [15]): 4290 ng·h/mL | AUC [16]: 5854 ng·h/mL | microsomal CLint (in vitro [3]): < 9.6 µL/min/mg | Activity [17]: Non-Toxic | half-life [18]: 44.6 min | AUC(0-t) at 24 h (in vivo [19]): 5830 ng·h/mL | CC50 at 48 h (in vitro [1]): 250 µM | Activity [20]: Non-Toxic | remaining at 1 h (in vitro [21]): 84.7% | pIC50 (Cytochrome P450 2C9): 4.22 | remaining at 1 h (in vitro [22]): 99.6% | half-life [23]: 61.8 min | bioavailability [24]: 13.7% | Activity [25]: Non-Toxic | Activity [26]: Toxic | Tmax [27]: 4.98 min | Activity [28]: Toxic | pIC50 (Cytochrome P450 2C19): < 4.00 | Activity [29]: Non-Toxic | half-life (in vitro [4]): > 145 min | pIC50 (Cytochrome P450 1A2): 4.05 | Activity [30]: Non-Toxic | Cmax [31]: 6300 ng/mL | pIC50 (Cytochrome P450 2D6): 4.23

C[C@]12CC[C@H]3[C@@H](CCC4=CC(=O)CC[C@@]43C)[C@@H]1CC[C@@H]2O [TESTOSTERONE]
CLint scaled (in vitro [2]): 66.2 mL/min/kg | microsomal CLint (in vitro [3]): 73.6 µL/min/mg | remaining at 1 h (in vitro [21]): 87.2% | remaining at 1 h (in vitro [22]): 9.8% | half-life (in vitro [4]): 18.8 min

CCC(CC)O[C@@H]1C=C(C(=O)O)C[C@H](NCc2ccc(-c3ccccc3)cc2)[C@H]1NC(C)=O
pIC50 [32]: 6.24 | pIC50 [33]: 8.72

CCC(CC)O[C@@H]1C=C(C(=O)O)C[C@H](NCc2ccc3c(c2)Cc2ccccc2-3)[C@H]1NC(C)=O
CC50 at 48 h (in vitro [1]): 250 µM
